Test results taken from the NIST ThermoML archive (doi:10.1021/acs.jced.8b00124).
Numbers after ± are expanded uncertainties.

Assays:
[1] = Crystal; DTA
[2] = Molar enthalpy of transition or fusion; conditions: Crystal; DSC

In the case of Cc1cc(C)nc(Nc2ccccc2)n1 [2-anilino-4,6-dimethylpyrimidine], the Normal melting temperature [1] is reported as 96.14 ± 1.1 °C and the “Molar enthalpy of transition or fusion” value [2] is reported as 6.08 ± 0.263 kcal/mol.
